In US5594012A, “Amino acid derivatives and anti-active oxygen agents” (Ajinomoto Co., Inc., priority 1992, dated 1997):

Tests used:
[1] = system: lipid peroxidation in murine brain homogenate; assay: Inhibitory effects on metal ion-induced lipid peroxidation (murine brain homogenate); assay type: biochemical, murine (C57 black mouse); conditions: 1 mM test compound; 100 μM ammonium iron (II) sulphate; 37° C., 30 minutes; pH 7.2 to 7.8
Description: Test for Inhibitory Effects on Metal Ion-induced Lipid Peroxidation
(§1) The test was carried out according to the method described in Method in Enzymol., Vol. 52, page 302, 1978. A C57 black mouse was killed by cervical dislocation, and the whole brain extracted from the dissected head was washed with 20 mM phosphate buffer (hereinafter referred to as "PBS-2"). Then, the brain was added with PBS-2 in an amount of 19 times its wet weight, and the mixture was disrupted and homogenized with a homogenizer "Polytron" (manufactured by Kinematica). The thus prepared 5% solution of the murine brain homogenate in PBS-2 was diluted 1:5 with fresh PBS-2. To 800 μl of the resulting 1% solution of the murine brain homogenate in PBS-2 (protein content: 0.8 to 1.0 mg/ml) were successively added 100 μl of a PBS-2 solution of each of the test compounds shown in Table 7 below and 100 μl of an aqueous solution of ammonium iron (II) sulphate. The final concentration of the test compounds and ammonium iron (II) sulphate were adjusted to be 1 mM and 100 μM, respectively. If test compounds were not soluble in PBS-2 alone, an aqueous sodium hydroxide solution or DMSO was added. The pH of the solution was adjusted to 7.2 to 7.8.
The solution after heated at 37° C. for 30 minutes was added with 2.0 ml of an aqueous solution of thiobarbituric acid/trichloroacetic acid/hydrochloric acid, and the mixture was heated in a boiling water bath for 15 minutes. After ice-cooling, the solution was extracted with 1.0 ml of 1-butanol to prepare a sample for determining the peroxide lipid in the same way as described in Test Example 1.
(§2) [formula] A1 : Absorbance when a test compound was added. A2 : Absorbance when a test compound was not added.
A3 : Absorbance when a test compound was not added and heating at 37° C. for 30 minutes was not carried out.

hydroxyl radical [2] = assay: Inhibitory effects on hydroxyl radical formation (1) (xanthine/xanthine oxidase, deoxyribose); assay type: biochemical; conditions: 360 μM test compound; 36 μM ammonium iron (III) sulphate; xanthine oxidase 0.7 unit/ml; 37° C., 15 minutes; pH 7.4 to 7.8
Description: Test for Inhibitory Effects on Hydroxyl Radical Formation (1)
The test was carried out in accordance with the method described in FEBS Letters, Vol. 128, page 347, 1981. Namely, to 1.1 ml of a solution of 54 mM sodium chloride in 9 mM phosphate buffer (hereinafter referred to as "PBS-I") were successively added 140 μl of a solution of each of the test compounds shown in Table 6 below in PBS-1, […] of a 1 mM solution of ammonium iron (III) sulphate in hydrochloric acid, 140 μl of a solution of xanthine (manufactured by Tokyo Kasei Co.) in PBS-1, 14 μl a solution of deoxyribose (Sigma) in PBS-1 and xanthine oxidase (Sigma). The final concentrations of the test compounds, ammonium iron (III) sulphate, xanthine, deoxyribose and xanthine oxidase were adjusted to be 360 μM, 36 μM, 70 μM, 700 μM and 0.7 unit/ml, respectively. If test compounds were not soluble in PBS-1 alone, aqueous sodium hydroxide solution or DMSO was added. The pH of the solution was adjusted to 7.4 to 7.8.
. The percent inhibition of the hydroxyl radical was calculated from the following equation (2) and the results are shown in Table 6. [formula] F1 : Intensity of fluorescence when a test compound was added. F2 : Intensity of fluorescence when a test compound was added but deoxyribose was not added.
F3 : Intensity of fluorescence when a test compound was not added.
F4 : Intensity of fluorescence when neither test compound nor deoxyribose was added.

[3] = system: lipid peroxidation in murine brain homogenate; assay: Inhibitory effects on lipid peroxidation (murine brain homogenate); assay type: biochemical, murine (C57 black mouse); conditions: 30 μM test compound; no added iron; 37° C., 60 minutes; pH 7.2 to 7.8
Description: as §1
Test for Inhibitory Effects on Lipid Peroxidation
To 900 μl of a 5% solution of the murine brain homogenate in PBS-2 prepared in the same way as described in Test Example 3 was added 100 μl of a PBS-2 solution of each of the test compounds shown in Table 8 below. The final concentration of the test compounds was adjusted to be 30 μM. If test compounds were not soluble in PBS-2 alone, an aqueous solution of sodium hydroxide or DMSO was added. The pH of the solution was adjusted to 7.2 to 7.8.
The solution after heated at 37° C. for 60 minutes was added with 1.0 ml of an aqeuous solution of thiobarbituric acid/trichloroacetic acid/hydrochloric acid, and the mixture was heated in a boiling water bath for 15 minutes. After ice-cooling, the solution was extracted with 2.0 ml of 1-butanol to prepare a sample for determining the lipid peroxide in the same way as described in Test Example 1. […] [formula] A4 : Absorbance when a test compound was added. A5 : Absorbance when a test compound was not added.
A6 : Abosrbance when a test compound was not added and heating at 37° C. for […] was not carried out.

[4] = system: lipid peroxidation in homogenate of murine swiss 3T3 cells; assay: Inhibitory effects on UV-induced lipid peroxidation (homogenate of murine swiss 3T3 cells); assay type: biochemical; conditions: 1 mM test compound; UVB 0.4 mW/cm^2, 90 min; pH 7.2 to 7.8; TBA, 535 nm
Description: Test for Inhibitory Effects on UV-induced Lipid Peroxidation
The test was carried out on the basis of the methods described in Biochim. Biophys. […] Namely, 12 μl of an aqueous sodium hydroxide solution of each of the test compounds shown in Table 5 below was added to 1.2 ml of a homogenate of murine swiss 3T3 cells (i.e. a kind of murine skin cells) prepared by a conventional method in 20 mM phosphate buffer (protein content: 1.5 to 1.8 mg/ml). The final concentration of the test compounds was adjusted to be 1 mM and the pH of the solution was adjusted to 7.2 to 7.8. If test compounds were not soluble in an aqueous sodium hydroxide solution, they were dissolved in N,N-dimethyl sulfoxide (DMSO).
This solution (1.1 ml) was irradiated with UV rays (0.4 mW/cm^2, 90 min.) using a UVB lamp "EB-280C/J" (manufactured by Spectronics). To an aliquot (1.0 ml) of this solution were successively added 0.2 ml of an aqueous solution of sodium dodecyl sulfate and 1.0 ml of an aqueous solution of thiobarbituric acid/trichloroacetic acid/hydrochloric acid, and the mixed solution was heated in a boiling water bath for 15 minutes. After ice-cooling, the solution was extracted with 1.0 ml of 1-butanol to prepare a sample for determining peroxide lipid as absorbance at a wavelength of 535 nm using a spectrophotometer "Model 320" (manufactured by Hitachi).
as §2
A3 : Absorbance when a test compound was not added and UV rays were not irradiated.

hydroxyl radical [5] = assay: Inhibitory effects on hydroxyl radical formation (2) (iron (II)/hydrogen peroxide, DMPO, ESR); assay type: biochemical; conditions: 306 μM test compound; 306 μM iron (II) sulphate; 75 mM DMPO; 306 μM hydrogen peroxide; ESR within 40 seconds
Description: Test for Inhibitory Effects on Hydroxyl Radical Formation (2)
To 75 μl of a solution of each of the test compounds shown in Table 9 below in 0.1M phosphate buffer (hereinafter referred to as "PBS-3") were successively added 75 μl of an aqueous solution of iron (II) sulphate, 20 μl of an aqueous solution of 5,5-dimethyl-1-pyrroline-N-oxide "DMPO" (manufactured by Dojin Chemical) and 75 μl of an aqueous solution of hydrogen peroxide. […] If test compounds were not soluble in PBS-3 alone, an aqueous sodium hydroxide solution or N,N-dimethyl formamide was added.
This solution was subjected to determination for the hydroxy radical immediately (within 40 seconds), using an electron spin resonance (ESR) meter "JES-FR80S" (manufactured by Nippon Denshi).
[formula] E1 : Signal magnitude when a test compound was added. E2 : Signal magnitude when a test compound was not added.

UV absorptive activities = assay type: physicochemical; conditions: 100 μM in ethanol (water or DMSO added if not soluble); for Maximum molar extinction coefficient: UVA and UVB regions
Description: Test for UV Absorptive Activities
A solution of each of the test compounds shown in Table 10 below in ethanol was prepared for the final concentration to be 100 μM. If test compounds were not soluble in ethanol alone, water or DMSO was added.
The absorption spectrum of each sample was determined using a spectrophotometer "Model 320" (manufactured by Hitachi).

| Compound | % Inhibition of metal ion-induced lipid peroxidation [1] [%] | % Inhibition of hydroxyl radical (hydroxyl radical [2]) [%] | % Inhibition of lipid peroxidation [3] [%] | % Inhibition of UV-induced lipid peroxidation [4] [%] | % Inhibition of hydroxy radicals (hydroxyl radical [5]) [%] | Wavelength (nm) of maximum absorption (UV absorptive activities) [nm] | Maximum molar extinction coefficient (UV absorptive activities) |
| --- | --- | --- | --- | --- | --- | --- | --- |
| O=C(O)CC(O)(CC(=O)O)C(=O)O [Citric acid, reference compound] | -15 | -33 | -13 | 19 |  |  |  |
| O=C(O)C(CCO)NCc1ccccc1O (stereo not drawn) [Synthesis Example 3] | 21 | 15 |  | 65 | 45 |  |  |
| O=C(O)C(Cc1ccc(O)cc1)NCc1ccccc1O (stereo not drawn) [Synthesis Example 4] | 26 | 33 |  | 60 | 27 |  |  |
| Cc1ncc(CO)c(CNCC(=O)O)c1O [Synthesis Example 16] |  |  | 89 |  | 56 |  |  |
| Cc1ncc(CO)c(CNC(Cc2c[nH]cn2)C(=O)O)c1O (stereo not drawn) [Synthesis Example 22] |  |  | 91 |  | 51 | 290 | 5,300 |
| Cc1ncc(CO)c(CNC(Cc2ccccc2)C(=O)O)c1O (stereo not drawn) [Synthesis Example 25] |  |  | 55 |  |  |  |  |
| Cc1ncc(CO)c(CNC(Cc2ccc(O)cc2)C(=O)O)c1O (stereo not drawn) [Synthesis Example 26] |  |  | 39 |  |  |  |  |
| O=C(O)[C@H](Cc1c[nH]cn1)N=Cc1c(O)ccc2ccccc12 [Synthesis Example 27, N-(2-hydroxy-1-naphthal)-L-histidine] | 87 |  | 98 |  | 71 | 309 | 7,000 |
| O=C(O)C(CCO)N=Cc1c(O)ccc2ccccc12 (stereo not drawn) [Synthesis Example 29] | 78 |  |  |  | 60 |  |  |
| CC(C)C(N=Cc1c(O)ccc2ccccc12)C(=O)O (stereo not drawn) [Synthesis Example 30] | 43 |  |  |  | 25 |  |  |
| O=C(O)C(Cc1ccc(O)cc1)N=Cc1c(O)ccc2ccccc12 (stereo not drawn) [Synthesis Example 31] | 90 | 16 |  |  |  |  |  |
| O=C(O)CCC(N=Cc1c(O)ccc2ccccc12)C(=O)O (stereo not drawn) [Synthesis Example 47] | 90 |  |  |  | 32 |  |  |
| COC(=O)CCC(N=Cc1c(O)ccc2ccccc12)C(=O)O (stereo not drawn) [Synthesis Example 48] | 85 |  |  |  | 54 |  |  |
| N=C(N)NCCCC(N=Cc1c(O)ccc2ccccc12)C(=O)O (stereo not drawn) [Synthesis Example 53] | 96 |  |  |  | 68 |  |  |
| O=C(O)C(Cc1c[nH]cn1)N=Cc1ccccc1O (stereo not drawn) [Synthesis Example 60] | 34 |  |  |  | 33 |  |  |
| Cc1ncc(CO)c(C=NC(CO)C(=O)O)c1O (stereo not drawn) [Synthesis Example 69] | 23 |  | 15 |  | 19 | 336 | 3,000 |
| Cc1ncc(CO)c(C=NC(Cc2ccc(O)cc2)C(=O)O)c1O (stereo not drawn) [Synthesis Example 70] | 27 | 60 |  |  | 28 |  |  |
| O=C1O[C@H]([C@@H](O)CO)C(O)=C1O [Vitamin C, reference compound] | -23 |  | -22 |  |  |  |  |
| Vitamin E [reference compound] | 29 |  | 30 |  |  |  |  |
